Among the data in patent US8389526B2, “3-heteroarylmethyl-imidazo[1,2-b]pyridazin-6-yl derivatives” (Novartis AG, priority 2009, dated 2013) are IC50 and solubility values, retold here.

Series [1] deals with T1, c-Met receptor tyrosine kinase, GST-c-Met(969-1390) (Homo sapiens, UniProt P08581).
T1 construct: made in house
Briefly: EPK c-Met profiling assay (LanthaScreen TR-FRET kinase assay). Type of series: biochemical. Conditions: 2 μM ATP, 0.3 nM enzyme, 60 minutes at room temperature. In outline: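 Recombinant GST-c-Met(969-1390) cytoplasmic domain, 0.3 nM, phosphorylating 50 nM Fluorescein-PolyEAY with 2 μM ATP, 10 mM MgCl2, 3 mM MnCl2, 60 min at room temperature. EDTA-stopped; phosphoproduct detected by TR-FRET with Tb-PY20 antibody, end-point read. Final compound 0.003-10 μM over 8 concentrations.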
(Time-resolved FRET reads energy transfer from a long-lived donor to a nearby acceptor.)

Series [2] has as its system MET-amplified gastric cancer cell line GTL-16. Description: GTL-16 proliferation assay (MTS). Type of series: cell-based. Conditions: Homo sapiens, GTL-16 cells, 72 h incubation. In outline:
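GTL-16 cells were seeded at 3000/well in DMEM with 10% FCS. After 24 h they were treated in triplicate with a 10-point, 3-fold dilution series ([…]; DMSO-only control) for 72 h. Viable cells were measured by MTS, with OD 490 nm read after 30 min.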

Series [3] can be described thus: Solubility assay at pH 7 and in FaSSIF. Type of series: physicochemical. Conditions: thermodynamic from solid. On the procedure:
A number of compounds of the present invention were assayed in a solubility assay at pH 7 and in fasted state simulated intestinal fluid (FaSSIF).
Solubility of the compounds was determined by suspending about 0.3 to 1.0 mg of drug substance in 0.1 mL of phosphate buffer at pH 7 and respectively FaSSIF.
Buffer pH 7 was obtained from MERCK as Tritisol® Phosphate Buffer. The Medium to Simulate the Fasted State Upper Small Intestine (Fasted State Simulated Intestinal Fluid) or FaSSIF was developed according to J. Dressmann publication Jantratid Ekarat; Janssen Niels; Reppas Christos; Dressman Jennifer B Dissolution media simulating conditions in the proximal human gastrointestinal tract: an update. Pharmaceutical research (2008), 25(7), 1663-76.
Composition from the FaSSIF is described in the following Table 3.
The suspensions or solutions were stirred over night at room temperature. After separation of the un-dissolved part by filtration (centrifugation using 0.45 μm PVDF or PTFE filters), the solutions were if necessary, diluted with acetonitrile to obtain concentrations below 1.0 mg/mL prior to UPLC analysis. Samples were then analyzed by UPLC to get the concentrations level of compound in the different media. Prior to analysis a method has been developed for each compound with an according calibration.
UPLC parameters: Column Aquity50*2.1 mm C18 1.7ym; Column temperature: 40° C.; mobile phase A: water MilliQ+0.1% TFA and B acetonitrile, gradient grade, +0.1% TFA.

Where [4] appears, read: FaSSIF (fasted state simulated intestinal fluid), fassif, fasted state simulated intestinal fluid, stirred over night at room temperature, read-out: Solubility FaSSIF.
The mark [5] stands for this setting: aqueous buffer, phosphate buffer pH 7, stirred over night at room temperature, read-out: Solubility Buffer pH 7.

Each structure is given as a SMILES string. ≈ marks a conversion by molar mass, not a printed value. Like-named read-outs stand apart in the source and are kept apart here.

T1 sequence (P08581 969-1390): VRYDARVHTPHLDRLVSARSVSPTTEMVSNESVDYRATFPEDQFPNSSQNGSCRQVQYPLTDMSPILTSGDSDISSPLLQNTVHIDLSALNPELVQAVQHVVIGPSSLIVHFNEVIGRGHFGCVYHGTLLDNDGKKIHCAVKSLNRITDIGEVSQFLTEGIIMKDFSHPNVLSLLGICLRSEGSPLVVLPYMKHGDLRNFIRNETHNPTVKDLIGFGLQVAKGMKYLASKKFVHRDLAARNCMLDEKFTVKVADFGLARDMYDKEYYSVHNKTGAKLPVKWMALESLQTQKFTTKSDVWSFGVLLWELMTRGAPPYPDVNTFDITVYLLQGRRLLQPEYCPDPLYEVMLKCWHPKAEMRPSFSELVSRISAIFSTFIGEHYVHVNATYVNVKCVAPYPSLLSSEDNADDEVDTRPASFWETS

Usually IC50 stands for the concentration that inhibits the measured activity by half. Lower therefore signals greater potency. One may read the solubility as the concentration that dissolves in the medium under given conditions. For `C[C@@H](c1c(F)cc2ncccc2c1F)c1cnc2ccc(N3CCNC(=O)C3)nn12` (single isomer, unassigned) [Example 5], the figures for the IC50 in series [1] and in series [2] were below 3 nM and 3.6 nM, respectively. Besides, the values for the solubility in series [3] (setting [4]) and in series [3] (setting [5]) were 164 µg/mL (≈ 402 µM) and 91 µg/mL (≈ 223 µM), respectively.

On to `C[C@@H](c1c(F)cc2ncccc2c1F)c1cnc2ccc(N3CCN(C)C(=O)C3)nn12` [Example 2, 4-{3-[(S)-1-(5,7-Difluoro-quinolin-6-yl)-ethyl]-imidazo[1,2-b]pyridazin-6-yl}-1-methyl-piperazin-2-one], for which the IC50 in series [1] was below 3 nM; in series [2], 1.7 nM. In addition, the solubility in series [3] (setting [4]) is 289 µg/mL (≈ 684 µM); in series [3] (setting [5]), 29 µg/mL (≈ 68.6 µM).

With `C[C@@H](c1c(F)cc2ncccc2c1F)c1cnc2ccc(N3CCNCC3)nn12` [Example 7, 5,7-Difluoro-6-[(S)-1-(6-piperazin-1-yl-imidazo[1,2-b]pyridazin-3-yl)-ethyl]-quinoline], the IC50 was determined as 4.1 nM in series [1] and 6.4 nM in series [2]. Besides, the solubility is 172 µg/mL (≈ 436 µM) in series [3] (setting [4]) and 248 µg/mL (≈ 629 µM) in series [3] (setting [5]).

As for `CC(=O)N1CCN(c2ccc3ncc([C@@H](C)c4c(F)cc5ncccc5c4F)n3n2)CC1` [Example 11, 1-(4-{3-[(S)-1-(5,7-Difluoro-quinolin-6-yl)-ethyl]-imidazo[1,2-b]pyridazin-6-yl}-piperazin-1-yl)ethanone], the results for the IC50 in series [1] and in series [2] were 3.6 nM and 7.2 nM, respectively. Moreover, the figures for the solubility in series [3] (setting [4]) and in series [3] (setting [5]) were 1350 µg/mL (≈ 3100 µM) and 32 µg/mL (≈ 73.3 µM), respectively.

Consider `C[C@@H](c1cc2cnn(C)c2cc1F)c1cnc2ccc(N3CCNC(=O)C3)nn12` [Example 28, 4-{3-[(S)-1-(6-Fluoro-1-methyl-1H-indazol-5-yl)-ethyl]-imidazo[1,2-b]pyridazin-6-yl}-piperazin-2-one], for which the half-maximal inhibitory concentration (IC50) in series [1] is 17 nM; in series [2] it was 26 nM. Also, the solubility in series [3] (setting [4]) is 374 µg/mL (≈ 951 µM); in series [3] (setting [5]), 117 µg/mL (≈ 297 µM).
